Laboratory results: PubChem BioAssay AID330 (DTP/NCI, 2004)
Where “and” joins values, the source holds several entries; their conditions need not be identical. Equal values may be shown once. Toxic doses and inconclusive results are not listed.

Tested on: P388 leukemia ip, CD2F1 mice, survival T/C
Assay: NCI In Vivo Anticancer Drug Screen. Data for tumor model P388 Leukemia (intraperitoneal) in CD2F1 (CDF1) mice
Settings: endpoint: median survival time, higher = longer survival
Method in brief: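 Mice carrying the transplanted tumor received test compound or vehicle. Survival was recorded in each group, and the value is the treated-group measurement divided by that of the vehicle-treated control group.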

[1] = dose: 50.0 mg/kg/injection, schedule: Q04DX003 (ip), vehicle: saline
[2] = dose: 50.0 mg/kg/injection, schedule: Q01DX009 (ip), vehicle: Klucel (hydroxypropylcellulose) (HPC)
[3] = dose: 3.13 mg/kg/injection, schedule: Q01DX009 (ip), vehicle: saline
[4] = dose: 12.5 mg/kg/injection, schedule: Q01DX009 (ip), vehicle: saline with Tween-80
[5] = dose: 50.0 mg/kg/injection, schedule: Q01DX005 (ip), vehicle: saline with Tween-80
[6] = dose: 100.0 mg/kg/injection, schedule: Q01DX005 (ip), vehicle: saline with Tween-80
[7] = dose: 50.0 mg/kg/injection, schedule: Q01DX005 (ip), vehicle: Klucel (hydroxypropylcellulose) (HPC)
[8] = dose: 100.0 mg/kg/injection, schedule: Q01DX005 (ip), vehicle: Klucel (hydroxypropylcellulose) (HPC)
[9] = dose: 200.0 mg/kg/injection, schedule: Q01DX005 (ip), vehicle: Klucel (hydroxypropylcellulose) (HPC)

NC(CC(=O)CCl)C(=O)O (stereo not given)
T/C (dose: 5.0 mg/kg/injection, schedule: Q01DX009 (ip), vehicle: saline with Tween-80): 154 % of control
T/C (dose: 6.25 mg/kg/injection, schedule: Q04DX003 (ip), vehicle: saline): 150 % of control
T/C (dose: 10.0 mg/kg/injection, schedule: Q01DX009 (ip), vehicle: saline with Tween-80): 168 % of control
T/C (dose: 12.5 mg/kg/injection, schedule: Q04DX003 (ip), vehicle: saline): 166 % of control
T/C (dose: 20.0 mg/kg/injection, schedule: Q01DX009 (ip), vehicle: saline with Tween-80): 159 % of control
T/C [1]: 176 % of control

CC1CCC2(C)CCC3(C)C4=CCC5C(C)(C)C(O)CCC5(C)C4CCC3(C)C2C1C (stereo not given)
T/C (dose: 200.0 mg/kg/injection, schedule: Q04DX003 (ip), vehicle: other): 95 % of control
T/C (dose: 400.0 mg/kg/injection, schedule: Q04DX003 (ip), vehicle: other): 100 % of control

COC(CN(C)C)C(Cl)(Cl)Cl (stereo not given)
T/C [2]: 103 % of control
T/C (dose: 100.0 mg/kg/injection, schedule: Q01DX009 (ip), vehicle: Klucel (hydroxypropylcellulose) (HPC)): 108 % of control
T/C (dose: 200.0 mg/kg/injection, schedule: Q01DX009 (ip), vehicle: Klucel (hydroxypropylcellulose) (HPC)): 101 % of control

Cc1ccc(/C=C/C(=N/Nc2ccccc2)C(C)CN(C)C)cc1 (stereo not given)
T/C (dose: 60.0 mg/kg/injection, schedule: Q01DX005 (ip), vehicle: saline with Tween-80): 100 % of control
T/C (dose: 120.0 mg/kg/injection, schedule: Q01DX005 (ip), vehicle: saline with Tween-80): 89 % of control

COC(=O)C(=O)C(C)C(=O)C(C)c1nc2n(c1O)C(=N)N=N2 (stereo not given)
T/C (dose: 50.0 mg/kg/injection, schedule: Q01DX005 (ip), vehicle: saline): 98 % of control
T/C (dose: 100.0 mg/kg/injection, schedule: Q01DX005 (ip), vehicle: saline): 97 % of control
T/C (dose: 200.0 mg/kg/injection, schedule: Q01DX005 (ip), vehicle: saline): 96 % of control

NC(=O)c1c(N)nn2c(-c3ccccc3)cc(-c3ccccc3)cc12
T/C (dose: 100.0 mg/kg/injection, schedule: Q01DX001 (ip), vehicle: Klucel (hydroxypropylcellulose) (HPC)): 86 % of control
T/C (dose: 400.0 mg/kg/injection, schedule: Q01DX001 (ip), vehicle: Klucel (hydroxypropylcellulose) (HPC)): 94 % of control

COC(=O)Nc1ccc(Cc2ccc(NC(=O)OC)cc2)cc1
T/C (dose: 25.0 mg/kg/injection, schedule: Q01DX009 (ip), vehicle: saline with Tween-80): 101 % of control and 104 % of control

CCOC(=O)NC(=Nc1cccc(C(=O)c2ccc3nc(NC(=O)OCC)[nH]c3c2)c1)NC(=O)OCC
T/C (dose: 15.0 mg/kg/injection, schedule: Q01DX005 (ip), vehicle: saline with Tween-80): 89 % of control
T/C (dose: 30.0 mg/kg/injection, schedule: Q01DX005 (ip), vehicle: saline with Tween-80): 94 % of control

CCCCCCCCP(=O)(N1CC1C)N1CC1C (stereo not given)
T/C [3]: 109 % of control
T/C (dose: 6.25 mg/kg/injection, schedule: Q01DX009 (ip), vehicle: saline): 109 % of control
T/C [4]: 122 % of control
T/C (dose: 12.5 mg/kg/injection, schedule: Q01DX009 (ip), vehicle: saline): 109 % of control
T/C (dose: 12.5 mg/kg/injection, schedule: Q04DX003 (ip), vehicle: saline with Tween-80): 100 % of control
T/C (dose: 25.0 mg/kg/injection, schedule: Q04DX003 (ip), vehicle: saline with Tween-80): 95 % of control
T/C (dose: 50.0 mg/kg/injection, schedule: Q04DX003 (ip), vehicle: saline with Tween-80): 109 % of control
T/C [1]: 108 % of control

O=S(=O)(O)C1CC2C(c3ccccc31)N1ON2O1 (stereo not given)
T/C [5]: 102 % of control
T/C [6]: 100 % of control
T/C (dose: 200.0 mg/kg/injection, schedule: Q01DX005 (ip), vehicle: saline with Tween-80): 100 % of control

CC(C)(C)COCC(O)Cn1cnc2c(N)ncnc21 (stereo not given)
T/C [7]: 100 % of control
T/C [8]: 97 % of control
T/C [9]: 91 % of control

COc1ccc(NC(=O)C(Cl)Cl)ccc1=O
T/C (dose: 50.0 mg/kg/injection, schedule: Q01DX009 (ip), vehicle: saline with Tween-80): 91 % of control

CN(C)Cc1cc(C(=O)c2ccccc2)c(O)cc1O
T/C (dose: 25.0 mg/kg/injection, schedule: Q01DX009 (ip), vehicle: Klucel (hydroxypropylcellulose) (HPC)): 103 % of control
T/C [2]: 103 % of control

S=C(NC12CC3CC(CC(C3)C1)C2)[NH][Sn]([c]1ccccc1)([c]1ccccc1)[c]1ccccc1
T/C (dose: 0.78 mg/kg/injection, schedule: Q01DX009 (ip), vehicle: saline): 92 % of control
T/C (dose: 1.56 mg/kg/injection, schedule: Q01DX009 (ip), vehicle: saline): 96 % of control
T/C [3]: 100 % of control
T/C [4]: 117 % of control

CCOP(=O)(Nc1c(Cl)cc2c(c1Cl)Cc1cc([N+](=O)[O-])ccc1-2)OCC
T/C [7]: 92 % of control
T/C [8]: 88 % of control
T/C [9]: 88 % of control

O=C(N/N=C/c1ccccc1O)C(O)(c1ccccc1)c1ccccc1
T/C (dose: 100.0 mg/kg/injection, schedule: Q04DX003 (ip), vehicle: saline with Tween-80): 107 % of control
T/C (dose: 200.0 mg/kg/injection, schedule: Q04DX003 (ip), vehicle: saline with Tween-80): 101 % of control
T/C (dose: 400.0 mg/kg/injection, schedule: Q04DX003 (ip), vehicle: saline with Tween-80): 92 % of control

CC1CCC(=O)CN1Cc1ccccc1 (stereo not given)
T/C [5]: 109 % of control
T/C [6]: 101 % of control
